“Also recorded” adds a separate entry of the source.
Legend:
Type in all cases: cell-based, human
[1] = tested on: eIF2-alpha, RPS6, 4EBP1, eIF4E, eEF2; experiment: Immunoblot of translational regulators; details: MB135 myoblasts, 4-hour pulse of doxycycline
Experimental: (§1) Protein samples were harvested in RIPA buffer [150 mM NaCl, 1% NP-40, 0.5% Na-deocycholate, 1% SDS, 25 mM Tris-HCl pH7.4] supplemented with protease and phosphatase inhibitor tablets (Pierce), followed by sonication in Diagenode Bioruptor. Lysate was cleared by centrifugation at 16000×g and quantified using a Pierce BCA assay (Thermo Fisher Scientific). Samples were run on NuPAGE precast polyacrylamide gels (Invitrogen) and transferred to PVDF membrane. Membranes were blocked in PBS containing 0.1% Tween-20 and 5% non-fat dry milk before overnight incubation at 4° C. with primary antibodies (see resource table for a list of antibodies used in this study). Membranes were incubated with horseradish peroxidase-conjugated secondary antibodies for 1 hour at room temperature and SuperSignal chemiluminescent substrate (Thermo Scientific) was used for detection on film with a Mini-medical 90 processor. Membranes were stripped with Restore Western Blot Stripping Buffer (Pierce).

[2] = tested on: translational efficiency (TE); experiment: Ribosome footprinting (Ribo-seq) paired with RNA-seq; details: DUX4 pulse+IFNG versus IFNG, 68 hours
Experimental: Ribo-seq was performed as described previously (Calviello et al., 2016) using two 70% confluent 15 cm plates of MB135iDUX4 myoblasts per treatment condition (n=3). MB135iDUX4 myoblasts were pulsed with or without doxycycline for 4 hours, incubated for 48 hours, supplemented with or without 50 ng/mL IFNG for 16 hours, and harvested at a terminal time point of 68 hours. To harvest, media was aspirated and each 15 cm plate of adherent cells was rinsed with 25 mL ice-cold PBS supplemented with 100 μg/mL cycloheximide (Sigma). After thorough removal of the PBS, plates were immersed in liquid nitrogen and placed on dry ice. Cells were lysed in mammalian polysome lysis buffer (20 mM Tris-HCl, pH 7.4, 150 mM NaCl, 5 mM MgCl2, 1 mM DTT, 100 μg/mL cycloheximide added fresh) supplemented with 1% Triton X-100 and 25 U/ml Turbo DNase (Ambion), transferred to wet ice, harvested by scraping and further lysed by trituration ten times through a 26-gauge needle. Lysates were cleared by centrifugation at 20,000×g for 10 min at 4° C., flash frozen in liquid nitrogen, and stored at −80° C. To isolate ribosome-protected RNA fragments, lysates were thawed, digested with 2.5 U/μL RNase I (Ambion) for 45 minutes at room temperature with gentle mixing, and treated with 0.65 U/μL SUPERaseIn RNase Inhibitor (Thermo Fisher Scientific) to stop nuclease activity. Ribosome complexes were isolated using MicroSpin S-400 HR Columns (GE Healthcare) and RNA extracted using the Direct-zol RNA Miniprep Kit (Zymo Research). The rRNA Removal Mix—Gold component of Illumina's TruSeq Stranded Total RNA Library Prep Gold kit was used to deplete rRNAs. Samples were precipitated using GlycoBlue Coprecipitant (Ambion) as carrier, 0.1 volume 3M sodium acetate and 3 volumes 100% Ethanol, incubated at −80° C. overnight, centrifuged for 45 minutes at 20,000×g at 4° C., and RNA pellet dissolved in nuclease-free ultrapure water. Ribosome-protected fragments were isolated by running samples on a 15% TBE-Urea gel with 10 bp DNA Ladder (Promega) and Marker-27nt and Marker-30nt (data not shown). […]

[3] = tested on: RPL10A, RPL4, RPS6, RPS15A, MYOD1, DES; experiment: Immunoblot of ribosomal proteins and myogenic factors; details: DUX4 pulse+IFNG relative to IFNG
Experimental: as §1

DUX4: human DUX4 protein SEQ ID NO:3 expressed from doxycycline inducible codon altered transgene SEQ ID NO:2
status of translational regulators after a pulse of transgene [1]: sufficient to induce phosphorylation of eIF2-alpha; also recorded: brief reduction in phosphorylation of ribosomal protein S6 (RPS6); also recorded: prolonged dephosphorylation of 4EBP1 and a correlated loss of phosphorylated eukaryotic initiation factor 4E (eIF4E); also recorded: increased phosphorylation of eukaryotic elongation factor 2 (eEF2) on threonine 56; also recorded: enhanced phosphorylation of eEF2 at Thr56 and reduced phosphorylation of eIF4E at Ser209
transcripts with significantly reduced TE at the 5′UTR [2]: 26.7%
transcripts with significantly reduced TE at the TSS [2]: 13.9%
transcripts with significantly reduced TE within the first exon [2]: 4.3%
protein levels of ribosomal proteins and myogenic factors [3]: RPL10A, RPL4, RPS6, and RPS15A are suppressed by DUX4; also recorded: both were suppressed at the protein level

From US20250339531A1, “DUX4 POLYPEPTIDES AND NUCLEIC ACIDS FOR TREATING INFLAMMATORY AND AUTOIMMUNE CONDITIONS” (Fred Hutchinson Cancer Center, priority 2021, published 2025)
